Structures can show the parent of a compound that is named as a salt.
Legend:
[1] = target: T1, human recombinant PTP1B (hPTP1B) (Homo sapiens, UniProt P18031); assay: Inhibition of tri-phosphorylated insulin receptor dodecaphosphopeptide dephosphorylation by hPTP1B (malachite green phosphate detection); format: biochemical; conditions: for IC50: recombinant PTP1B, insulin receptor 1142-1153 triphosphopeptide substrate, 37° C., 30 min, pH 7.4
T1 construct: made in house
T1 sequence (P18031 1-435): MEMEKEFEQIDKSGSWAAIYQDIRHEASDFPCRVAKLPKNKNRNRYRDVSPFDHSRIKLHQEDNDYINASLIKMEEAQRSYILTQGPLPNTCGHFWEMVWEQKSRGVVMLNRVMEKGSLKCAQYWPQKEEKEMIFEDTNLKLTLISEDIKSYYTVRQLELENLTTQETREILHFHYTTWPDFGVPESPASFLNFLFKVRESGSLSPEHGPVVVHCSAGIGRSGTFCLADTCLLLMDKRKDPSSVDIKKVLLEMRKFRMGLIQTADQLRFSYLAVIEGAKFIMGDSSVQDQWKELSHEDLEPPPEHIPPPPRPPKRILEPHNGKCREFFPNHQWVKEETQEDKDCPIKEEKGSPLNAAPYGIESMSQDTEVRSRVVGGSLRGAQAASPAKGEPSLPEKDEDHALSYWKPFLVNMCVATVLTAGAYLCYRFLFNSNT

Compound | % inhibition @ 0.5 μM [1] [% inhibition @ 0.5 μM] | melting point [°C] | IC50 [1] [nM] | inhibition at 1 µM ([1]; compound at 1.0 μM, percent of phosphatase control) [%]
4-[4-(2-Butyl-benzofuran-3-carbonyl)-phenylsulfonyl]-2-hydroxy-benzoic acid [Example 16] | 22.81 | – | – | –
CCc1oc2ccccc2c1C(=O)c1cc(-c2ccccc2)c(OS(=O)(=O)c2ccc(C(=O)O)c(O)c2)c(-c2ccccc2)c1 (as salt: sodium) [Example 6, 4-[5′-(2-Ethyl-benzofuran-3-carbonyl)-[1,1′: 3′,1″]terphenyl-2′-yloxysulfonyl-]2-hydroxy-benzoic acid sodium salt] | – | 211 to 212 | – | –
CCc1oc2ccccc2c1C(=O)c1cc(Br)c(OS(=O)(=O)c2ccc(C(=O)O)c(O)c2)c(Br)c1 [Example 1, 4-[2,6-Dibromo-4-(2-ethyl-benzofuran-3-carbonyl)-phenoxysulfonyl]-2-hydroxy-benzoic acid] | – | 173 | 251 | –
CCCCc1oc2ccccc2c1C(=O)c1cc(-c2ccccc2)c(OS(=O)(=O)c2ccc(C(=O)O)c(O)c2)c(-c2ccccc2)c1 [Example 2, 4-[5′-(2-Butyl-benzofuran-3-carbonyl)-[1,1′; 3′1″]terphenyl-2′-yloxysulfonyl]-2-hydroxy-benzoic acid] | – | 190 to 197 | 130 | –
CCc1oc2ccccc2c1C(=O)c1cc(C)c(OS(=O)(=O)c2ccc(C(=O)O)c(O)c2)c(C)c1 [Example 3, 4-[4-(2-Ethyl-benzofuran-3-carbonyl)-2,6-dimethyl-phenoxysulfonyl]-2-hydroxy-benzoic acid] | – | 166 to 167 | 421 | –
CCc1oc2ccccc2c1C(=O)c1cc(C(C)C)c(OS(=O)(=O)c2ccc(C(=O)O)c(O)c2)c(C(C)C)c1 [Example 4, 4-[4-(2-Ethyl-benzofuran-3-carbonyl)-2,6-diisopropyl-phenoxysulfonyl]-2-hydroxy-benzoic acid] | – | 200 to 201 | 559 | –
Cc1oc(Cc2ccccc2)c(C(=O)c2cc(C(C)C)c(OS(=O)(=O)c3ccc(C(=O)O)c(O)c3)c(C(C)C)c2)c1C [Example 5, 4-[4-(2-Benzyl-4,5-dimethyl-furan-3-carbonyl)-2,6-diisopropyl-phenoxysulfonyl]-2-hydroxy-benzoic acid] | – | 142 to 143 | 83 | –
CCc1oc2ccccc2c1C(=O)c1cc(-c2ccccc2)c(OS(=O)(=O)c2ccc(C(=O)O)c(O)c2)c(-c2ccccc2)c1 [Example 6, 4-[5′-(2-Ethyl-benzofuran-3-carbonyl)-[1,1′: 3′,1″]terphenyl-2′-yloxysulfonyl-]2-hydroxy-benzoic acid sodium salt] | – | – | 256 | –
Cc1cc(C(=O)c2c(Cc3ccccc3)oc(C)c2C)cc(-c2ccccc2)c1OS(=O)(=O)c1ccc(C(=O)[O-])c(O)c1.[Na+] [Example 7, 4-[5-(2-Benzyl4,5-dimethyl-furan-3-carbonyl)-3-methyl-biphenyl-2-yloxysulfonyl]-2-hydroxy-benzoic acid sodium salt] | – | 187 to 190 | 180 | –
Cc1oc(Cc2ccc3ccccc3c2)c(C(=O)c2cc(C(C)C)c(OS(=O)(=O)c3ccc(C(=O)O)c(O)c3)c(C(C)C)c2)c1C [Example 8, 4-[4-(4,5-Dimethyl-2-naphthalen-2-ylmethyl-furan-3-carbonyl)-2,6-diisopropyl-phenoxysulfonyl]-2-hydroxy-benzoic acid] | – | 130 to 135 | 75 | –
Cc1oc(Cc2ccccc2Br)c(C(=O)c2cc(C(C)C)c(OS(=O)(=O)c3ccc(C(=O)O)c(O)c3)c(C(C)C)c2)c1C [Example 9, 4-{4-[2-(2-Bromo-benzyl)-4.5-dimethyl-furan-3-carbonyl]-2.6-diisopropyl-phenoxysulfonyl}-2-hydroxy-benzoic acid] | – | 90 to 95 | 83 | –
Cc1oc(Cc2cccc(Br)c2)c(C(=O)c2cc(C(C)C)c(OS(=O)(=O)c3ccc(C(=O)O)c(O)c3)c(C(C)C)c2)c1C [Example 10, 4-{4-[2-(3-Bromo-benzyl)-4.5-dimethyl-furan-3-carbonyl]-2.6-diisopropylphenoxysulfonyl}-2-hydroxy-benzoic acid] | – | 148 | 226 | –
Cc1oc(Cc2ccc(Br)cc2)c(C(=O)c2cc(C(C)C)c(OS(=O)(=O)c3ccc(C(=O)O)c(O)c3)c(C(C)C)c2)c1C [Example 11, 4-{4-[2-(4-Bromo-benzyl)4,5-dimethyl-fuiran-3-carbonyl]-2,6-diisopropyl-phenoxysulfonyl}-2-hydroxy-benzoic acid] | – | 165 to 168 | 99 | –
O=C(O)c1ccc(S(=O)(=O)Oc2ccc(CCc3c(Cc4ccccc4)sc4ccccc34)cc2)cc1O [Example 12, 4-{4-[2-(2-Benzyl-benzo[b]thiophen-3-yl)thyl]-phenoxysulfonyl}-2-hydroxy-benzoic acid] | – | 57 to 59 | 183 | –
Cc1oc(Cc2ccc(Br)cc2)c(C(=O)c2ccc(OS(=O)(=O)c3ccc(C(=O)O)c(O)c3)c(C3CCCC3)c2)c1C [Example 13, 4-{4-[2-(4-Bromo-benzyl)4,5-dimethyl-furan-3-carbonyl]-2-cyclopentyl-phenoxysulfonyl}-2-hydroxy-benzoic acid] | – | 188 to 192 | 267 | –
CCCCc1oc2ccccc2c1CCc1ccc(OS(=O)(=O)c2ccc(C(=O)O)c(O)c2)cc1 [Example 14, 4-{4-[2-(2-Butyl-benzofuran-3-yl)-ethyl]-phenoxysulfonyl}-2-hydroxy-benzoic acid] | – | 93 to 95 | 60 | –
CCCCc1oc2ccccc2c1CNc1ccc(OS(=O)(=O)c2ccc(C(=O)O)c(O)c2)cc1 [Example 15, 4-{4-[(2-Butyl-benzofuran-3-ylmethyl)-amino]-phenoxysulfonyl}-2-hydroxy-benzoic acid] | – | 75 to 77 | – | 28.8
Cc1oc(Cc2ccccc2)c(C(=O)c2ccc(OS(=O)(=O)c3ccc(C(=O)O)c(O)c3)c(C3CCCC3)c2)c1C [Example 17, 4-[4-(2-Benzyl-4,5-dimethyl-furan-3-carbonyl)-2-cyclopentyl-phenoxysulfonyl]-2-hydroxy-benzoic acid] | – | 80 to 85 | 643 | –
Cc1sc(Cc2ccccc2)c(C(=O)c2ccc(OS(=O)(=O)c3ccc(C(=O)O)c(O)c3)c(C3CCCC3)c2)c1C [Example 18, 4-[4-(2-Benzyl-4,5-dimethyl-thiophene-3-carbonyl)-2-cyclopentyl-phenoxysulfonyll-]2-hydroxy-benzoic acid] | – | 70 to 77 | 404 | –
CCc1cc(C(=O)c2c(Cc3ccccc3)oc(C)c2C)cc(CC)c1OS(=O)(=O)c1ccc(C(=O)O)c(O)c1 [Example 19, 4-[4-(2-Benzyl-4,5-dimethyl-furan-3-carbonyl)-2.6-diethyl-phenoxysulfonyl]-2-hydroxy-benzoic acid] | – | 143 to 147 | 633 | –
Cc1sc(Cc2ccc(Br)cc2)c(C(=O)c2ccc(OS(=O)(=O)c3ccc(C(=O)O)c(O)c3)c(C3CCCC3)c2)c1C [Example 20, 4-{4-[2-(4-Bromo-benzyl)4.5-dimethyl-thiophene-3-carbonyl]-2-cyclopentylphenoxysulfonyl}-2-hydroxy-benzoic acid] | – | 165 to 170 | 148 | –
Ammonium molybdate tetrahydrate [reference compound] | – | – | 8700 | –

— patent US6683107B2, “Furans, benzofurans, and thiophenes useful in the treatment of insulin resistance and hyperglycemia” (Wyeth, priority 1998, dated 2004)
